Where no end group is shown, it is not given here.
Experiments:
Assay in all cases: Novispirins vs S. maltophilia (Table 5)
Assay type in all cases: cell-based, Stenotrophomonas maltophilia
Set-up in all cases: unit not given here
S. maltophilia 18CP = details: strain 18CP
Description: (§1) Microorganisms used in this study included 13 different Pseudomonas aeruginosa strains. The AML-654 and LZ-1 strains are recent clinical isolates from the UCLA Clinical Microbiology laboratory. Nine strains (5 mucoid, 4 nonmucoid) were recent CF isolates provided by Dr. Lisa Saiman. All of the P. aeruginosa strains except PAO-1 strain were resistant to multiple conventional antibiotics, and all 9 CF isolates were resistant to 250 μg/ml of tobramycin. We have also tested 5 strains each of Stenotrophomonas maltophilia and Burkholderia cepacia from CF patients (also provided by Dr. Lisa Saiman), two strains of Escherichia coli (ML-35p and DH-5a), and single strains of Staphylococcus aureus[MRSA (methicillin-resistant S. aureus)] and C. albicans.

S. maltophilia 36CN = details: strain 36CN
Description: as §1

S. maltophilia 42CK = details: strain 42CK
Description: as §1

S. maltophilia 47CG = details: strain 47CG
Description: as §1

S. maltophilia 51Cl = details: strain 51Cl
Description: as §1

Row | Compound | activity vs S. maltophilia (S. maltophilia 18CP; +100 mM NaCl) | activity vs S. maltophilia (S. maltophilia 18CP; +175 mM NaCl) | activity vs S. maltophilia (S. maltophilia 18CP; LOW SALT CONDITIONS) | activity vs S. maltophilia (S. maltophilia 36CN; +100 mM NaCl) | activity vs S. maltophilia (S. maltophilia 36CN; +175 mM NaCl) | activity vs S. maltophilia (S. maltophilia 36CN; LOW SALT CONDITIONS) | activity vs S. maltophilia (S. maltophilia 42CK; +100 mM NaCl) | activity vs S. maltophilia (S. maltophilia 42CK; +175 mM NaCl) | activity vs S. maltophilia (S. maltophilia 42CK; LOW SALT CONDITIONS) | activity vs S. maltophilia (S. maltophilia 47CG; +100 mM NaCl) | activity vs S. maltophilia (S. maltophilia 47CG; +175 mM NaCl) | activity vs S. maltophilia (S. maltophilia 47CG; LOW SALT CONDITIONS) | activity vs S. maltophilia (S. maltophilia 51Cl; +100 mM NaCl) | activity vs S. maltophilia (S. maltophilia 51Cl; +175 mM NaCl) | activity vs S. maltophilia (S. maltophilia 51Cl; LOW SALT CONDITIONS)
1 | CC(C)C[C@H](NC(=O)[C@H](CCCNC(=N)N)NC(=O)CNC(=O)CNC(=O)[C@@H](N)CCCNC(=N)N)C(=O)N[C@H]1CSSC[C@@H](C(=O)N[C@H](C(=O)NCC(=O)N[C@@H](CCCNC(=N)N)C(N)=O)C(C)C)NC(=O)[C@H](C(C)C)NC(=O)[C@@H]2CSSC[C@H](NC(=O)[C@H](Cc3ccc(O)cc3)NC1=O)C(=O)N[C@@H](CCCNC(=N)N)C(=O)N[C@@H](CCCNC(=N)N)C(=O)N[C@@H](CCCNC(=N)N)C(=O)N[C@@H](Cc1ccccc1)C(=O)N2 [Protegrin PG-1, reference compound] | 0.58 | 0.70 | 0.52 | 0.46 | 0.57 | 0.27 | 0.50 | 0.79 | 0.32 | 0.53 | 0.74 | 0.09 | 0.92 | 1.08 | 0.42
2 | GLLRRLRKKIGEIFKKYG [PGG, reference compound] | 1.63 | 2.34 | 0.86 | 1.05 | 1.11 | 1.10 | 2.67 | 7.10 | 1.51 | 1.08 | 1.64 | 0.73 | 2.20 | 2.85 | 1.31
3 | Polymyxin B [reference compound] | 0.04 | 0.002 | 0.04 | 0.02 | 0.02 | 0.06 | 0.02 | 0.01 | 0.05 | 0.08 | 0.05 | 0.16 | 0.04 | 0.05 | 0.02

— patent US6492328B2, “Novispirins: antimicrobial peptides” (priority 2000, dated 2002)
